Drawing on patent US8933098B2, “Dimethyl-benzoic acid compounds” (Eli Lilly and Company, priority 2012, dated 2015), this text covers Ki and IC50 for one compound.

The structures appear in SMILES notation.

As usually defined, the Ki is the equilibrium dissociation constant of an inhibitor or competing ligand from its target. The term IC50 denotes the concentration that inhibits the measured activity by half.

One assay has as its target human EP1 (Homo sapiens (Human), UniProt P34995). Kind of assay: In vitro binding to human EP1, [3H]-PGE2 displacement on membranes. The conditions noted are these: HEK293 membranes, n = 1, read-out: hEP1, Ki. On the procedure: (§1) hEP1 and hEP4 membranes are prepared from recombinant HEK293 cells stably expressing human EP1 (Genbank accession number AY275470) or EP4 (Genbank accession number AY429109) receptors. hEP2 and hEP3 membranes are prepared from HEK293 cells transiently transfected with EP2 (Genbank accession number AY275471) or EP3 (isoform VI: Genbank accession number AY429108) receptor plasmids. Frozen cell pellets are homogenized in homogenization buffer using a Teflon/glass homogenizer. Membrane protein is aliquoted and quick frozen on dry ice prior to storage at −80° C. Homogenization buffer contained 10 mM Tris-HCl, pH 7.4, 250 mM sucrose, 1 mM EDTA, 0.3 mM indomethacin and plus Complete™, with EDTA, obtained from Roche Molecular Biochemicals (Catalog Number 1 697 498).
(§2) Kd values for [3H]-PGE2 binding to each receptor are determined by saturation binding studies or homologous competition. Compounds are tested in a 96-well format using a three-fold dilution series to generate a 10-point curve. […] The membranes are harvested by filtration (TomTek harvester), washed 4 times with cold buffer (10 mM MES pH 6.0 with KOH, 10 mM MgCl2), dried in a 60° C. oven, and the radioactivity is quantified as counts per minute (CPM) using a TopCount detector. […]

The target of the next assay is human EP2 (Homo sapiens (Human), UniProt P43116). In words: In vitro binding to human EP2, [3H]-PGE2 displacement on membranes. The conditions noted are these: HEK293 membranes, n = 1, read-out: hEP2, Ki. As to the method: as §1, §2
Chain of human EP2 (P43116 whole entry, canonical isoform): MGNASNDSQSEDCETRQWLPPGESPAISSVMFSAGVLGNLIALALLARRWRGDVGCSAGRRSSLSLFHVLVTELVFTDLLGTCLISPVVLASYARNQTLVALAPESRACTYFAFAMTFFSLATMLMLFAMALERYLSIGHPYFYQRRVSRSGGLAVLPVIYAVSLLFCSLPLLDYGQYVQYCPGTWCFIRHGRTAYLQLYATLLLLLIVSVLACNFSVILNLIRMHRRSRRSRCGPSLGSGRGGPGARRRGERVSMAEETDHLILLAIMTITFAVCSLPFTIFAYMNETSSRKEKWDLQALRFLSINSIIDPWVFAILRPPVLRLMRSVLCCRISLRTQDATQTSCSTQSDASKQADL
Another assay concerns the target human EP3 (isoform VI) (Homo sapiens, UniProt P43115). Kind of assay: In vitro binding to human EP3, [3H]-PGE2 displacement on membranes. The settings on record: HEK293 membranes, n = 1, read-out: hEP3, Ki. As to the method:
as §1, with “-80°” for “−80°”, “CompleteTM,” for “Complete™,”, “498). Kd values for [3H]-PGE2 binding to each receptor are determined by saturation binding studies or homologous competition. Compounds are tested in a 96-well format using a three-fold dilution series to generate a 10-point curve. […] The membranes are harvested by filtration (TomTek harvester), washed 4 times with cold buffer (10 mM MES pH 6.0 with KOH, 10 mM MgCl2), dried in a 60° C. oven, and the radioactivity is quantified as counts per minute (CPM) using a TopCount detector. […]” for “498).”

Assay [1] has as its target T1, human EP4 (Homo sapiens (Human), UniProt P35408). Kind of assay: In vitro binding to human EP4, [3H]-PGE2 displacement on membranes. The settings on record: HEK293 membranes, n = 7, read-out: hEP4, Ki.
Target sequence in this assay (P35408 whole entry, looked up): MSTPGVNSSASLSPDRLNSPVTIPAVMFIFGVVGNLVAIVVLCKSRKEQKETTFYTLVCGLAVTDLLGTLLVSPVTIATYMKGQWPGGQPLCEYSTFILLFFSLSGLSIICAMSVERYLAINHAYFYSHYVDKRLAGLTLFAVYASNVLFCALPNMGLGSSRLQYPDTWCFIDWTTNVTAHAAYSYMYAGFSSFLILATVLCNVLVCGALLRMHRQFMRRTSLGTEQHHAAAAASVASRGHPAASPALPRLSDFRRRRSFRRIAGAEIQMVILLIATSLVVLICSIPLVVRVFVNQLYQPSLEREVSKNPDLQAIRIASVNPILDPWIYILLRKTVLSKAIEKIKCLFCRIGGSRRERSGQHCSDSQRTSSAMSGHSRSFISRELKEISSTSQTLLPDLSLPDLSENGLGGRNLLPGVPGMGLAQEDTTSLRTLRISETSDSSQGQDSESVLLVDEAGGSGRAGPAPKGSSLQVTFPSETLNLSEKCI
Procedure: Compounds are tested in a 96-well format using a three-fold dilution series to generate a 10-point curve. […] The binding reaction is performed in 200 μL MES buffer (10 mM MES pH 6.0 with KOH, 10 mM MgCl2 and 1 mM EDTA) using 0.5 mL polystyrene 96-well deep-well plates. […] The membranes are harvested by filtration (TomTek harvester), washed 4 times with cold buffer (10 mM MES pH 6.0 with KOH, 10 mM MgCl2), dried in a 60° C. oven, and the radioactivity is quantified as counts per minute (CPM) using a TopCount detector. […] Data are analyzed using a 4-parameter nonlinear logistic equation (ABase Equation 205) as shown: y=(A+((B−A)/(1+((C/x)^D)))) where, y=% specific inhibition, A=bottom of the curve; B=top of the curve; C=relative IC50 concentration causing 50% inhibition based on the range of the data from top to bottom; D=Hill, Slope=slope of the curve. Ki conversion from IC50 Values (Ki=IC50/(1+[L]/Kd) where [L] is the ligand concentration).
For assay [2], the target named is T1, human EP4. Kind of assay: In vitro human EP4 functional antagonist activity (PGE2-stimulated cAMP, HTRF). Format: cell-based. The settings on record: read-out: IC50 measured at human EP4. An excerpt:
The raw data are converted to cAMP amount (pmole/well) using a cAMP standard curve generated for each experiment.
Target sequence in this assay (P35408 whole entry): as the sequence (P35408 whole entry, looked up) above

Another assay has as its target rat EP4 (Rattus norvegicus (Rat), UniProt P43114). In words: In vitro rat EP4 functional antagonist activity (PGE2-stimulated cAMP, HTRF). The conditions noted are these: inhibition of PGE2-stimulated (EC80) cAMP production, HEK293 cells expressing rat EP4; read-out: IC50 measured at rat EP4. The class given is cell-based.
Assay [3] deals with T1, human EP4. Kind of assay: In vitro antagonist activity in human whole blood (reversal of PGE2 inhibition of LPS-induced TNFα production). The settings on record: read-out: IC50 measured at human EP4, human blood TNFα induction assay. The class given is cell-based.
Target sequence in this assay (P35408 whole entry, looked up): as above
Procedure: Blood is collected from normal volunteer donors into sodium heparin vacutainer tubes. Donors have not taken NSAIDs or celecoxib within 48 hours or glucocorticoids within two weeks of the donation. All tubes/donor are pooled into 50 mL Falcon conical centrifuge tubes and 98 μL/well is distributed into 96-well tissue culture plates (Falcon 3072). […] The plates are incubated for 20-24 hours at 37° C. in a 5% CO2 humidified atmosphere. The plates are centrifuged at 1800×g, 10 minutes at 22° C., in an Eppendorf 5810R centrifuge. Plasma is removed from the cell layer and is transferred to v-bottom polypropylene plates. TNFα levels in 2 μL plasma are quantified by a commercially available enzyme immunoassay (R&D Systems DY210), using Immulon 4 HBX plates (Thermo 3855) and 3,3′,5,5′ tetramethylbiphenyl-4,4′-diamine substrate (KPL 50-76-03). The plates are read at A450-A650 on a plate reader (Molecular Devices Versamax) using SOFTmaxPRO (v. 4.3.1) software. IC50s are calculated using Graphpad Prism (v. 4) nonlinear regression, sigmoidal dose response curve fitting. Results are expressed as the geometric mean±standard deviation; n=number of independent determinations.

Chain of rat EP4 (P43114 whole entry): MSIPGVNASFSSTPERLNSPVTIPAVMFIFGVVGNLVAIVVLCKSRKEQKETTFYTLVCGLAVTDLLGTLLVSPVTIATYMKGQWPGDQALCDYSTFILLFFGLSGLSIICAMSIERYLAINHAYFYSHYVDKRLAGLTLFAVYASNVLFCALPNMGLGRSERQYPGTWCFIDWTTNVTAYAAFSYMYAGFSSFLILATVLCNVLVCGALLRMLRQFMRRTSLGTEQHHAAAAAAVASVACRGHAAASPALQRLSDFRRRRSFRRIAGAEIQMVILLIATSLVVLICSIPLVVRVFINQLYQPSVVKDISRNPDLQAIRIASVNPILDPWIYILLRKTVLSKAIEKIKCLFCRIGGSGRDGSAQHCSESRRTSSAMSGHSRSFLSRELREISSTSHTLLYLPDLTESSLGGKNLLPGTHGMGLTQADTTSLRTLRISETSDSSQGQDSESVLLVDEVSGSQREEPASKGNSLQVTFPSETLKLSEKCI
Chain of human EP1 (P34995 whole entry, canonical isoform): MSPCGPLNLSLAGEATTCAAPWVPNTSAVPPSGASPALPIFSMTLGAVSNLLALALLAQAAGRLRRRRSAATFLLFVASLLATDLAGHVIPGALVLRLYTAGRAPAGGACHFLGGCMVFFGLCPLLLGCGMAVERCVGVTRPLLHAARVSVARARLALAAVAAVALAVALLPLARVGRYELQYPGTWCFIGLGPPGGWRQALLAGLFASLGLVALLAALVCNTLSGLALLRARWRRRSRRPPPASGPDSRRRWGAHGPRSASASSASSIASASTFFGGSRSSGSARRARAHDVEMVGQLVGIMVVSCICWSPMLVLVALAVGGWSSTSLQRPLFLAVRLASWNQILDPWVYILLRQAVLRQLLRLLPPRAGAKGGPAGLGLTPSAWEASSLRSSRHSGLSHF
Chain of human EP3 (isoform VI) (P43115 whole entry, looked up, canonical isoform): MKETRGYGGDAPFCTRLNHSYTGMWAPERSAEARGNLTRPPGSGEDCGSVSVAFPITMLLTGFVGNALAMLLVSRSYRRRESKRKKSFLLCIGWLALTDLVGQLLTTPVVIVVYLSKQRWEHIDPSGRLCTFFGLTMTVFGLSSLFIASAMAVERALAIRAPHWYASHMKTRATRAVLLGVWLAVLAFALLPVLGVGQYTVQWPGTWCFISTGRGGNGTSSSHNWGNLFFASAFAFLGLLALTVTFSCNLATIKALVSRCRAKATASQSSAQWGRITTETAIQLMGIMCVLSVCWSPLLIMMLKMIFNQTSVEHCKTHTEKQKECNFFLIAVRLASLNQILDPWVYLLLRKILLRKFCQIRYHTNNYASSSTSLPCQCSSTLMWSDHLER
Procedure for rat EP4: To test EP4 antagonist compounds in rEP4 cells, thaw the frozen cells and then resuspend cells in cAMP assay buffer. The cAMP buffer is made by HBSS without Phenol Red (Hyclone, SH30268) supplemented with 20 mM HEPES (Hyclone, SH30237), 0.1% BSA (Gibco, 15260) and 125 μM IBMX (Sigma, 15879). The cells are plated into 96-well half area flat-bottom polystyrene black plates (Costar 3694). […] The cAMP levels generated from the cells are quantified by a cAMP HTRF assay kit (Cisbio 62AM4PEC). The plates are read on an EnVision plate reader using HTRF optimized protocol (PerkinElmer). IC50's are calculated using Graphpad Prism (v. 4) nonlinear regression, sigmoidal dose response curve fitting.

Consider `Cc1ccc(N2CCC(O)CC2)nc1C(=O)Nc1c(C)cc(C(=O)O)cc1C` [Example 1, 4-[[6-(4-hydroxy-1-piperidyl)-3-methyl-pyridine-2-carbonyl]amino]-3,5-dimethyl-benzoic acid], for which the Ki was more than 17500 nM on human EP1, more than 18900 nM at human EP2, more than 14000 nM at human EP3 (isoform VI) and 76 ± 47 nM on human EP4 [1]. Moreover, the IC50 amounted to 5.6 ± 2.8 nM on human EP4 [2], 12 nM on rat EP4 and 123 ± 81 nM on human EP4 [3].
